Assay results taken from PMC6399220, “Engineered XylE as a tool for mechanistic investigation and ligand discovery of the glucose transporters GLUTs” (Cell Discovery, 2019).

Assays:
Format in all cases: binding
[1] = biological target: T1, XylE (WT, xylose:proton symporter) (Escherichia coli, UniProt P0AGF4); assay: MST
T1 sequence (P0AGF4 1-491): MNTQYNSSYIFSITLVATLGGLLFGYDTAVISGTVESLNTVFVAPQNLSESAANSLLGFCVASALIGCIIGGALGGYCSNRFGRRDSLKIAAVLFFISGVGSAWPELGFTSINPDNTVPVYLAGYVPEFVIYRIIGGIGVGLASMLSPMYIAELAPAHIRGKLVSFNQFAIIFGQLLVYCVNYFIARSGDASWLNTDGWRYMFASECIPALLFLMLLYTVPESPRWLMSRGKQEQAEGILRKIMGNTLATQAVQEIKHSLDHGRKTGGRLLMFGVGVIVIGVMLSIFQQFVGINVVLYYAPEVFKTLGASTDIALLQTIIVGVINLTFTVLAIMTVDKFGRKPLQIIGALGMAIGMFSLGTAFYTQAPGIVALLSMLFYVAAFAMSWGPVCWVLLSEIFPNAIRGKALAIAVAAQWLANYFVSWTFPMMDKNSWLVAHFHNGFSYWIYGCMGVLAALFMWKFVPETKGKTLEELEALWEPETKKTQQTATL

[2] = biological target: T2, XylE-WW (xylose:proton symporter XylE) (Escherichia coli, UniProt P0AGF4, G58W/L315W); assay: MST
[3] = biological target: T1, XylE (WT, xylose:proton symporter); assay: ITC (MST almost identical)
[4] = biological target: T2, XylE-WW (xylose:proton symporter XylE); assay: MST and ITC

Row | SMILES | Kd [1] | Kd [2] | Kd [3] | Kd [4]
1 | OC[C@H]1OC(O)[C@H](O)[C@@H](O)[C@@H]1O (stereo partly drawn) [D-glucose] | 2080 ± 95.7 µM | 27.5 ± 0.5 µM | – | –
2 | OC1OC[C@@H](O)[C@H](O)[C@H]1O (stereo partly drawn) [D-xylose] | – | – | 843 ± 8 µM | 14.4 ± 0.2 µM
